# Source: patent US20060116390A1, “Hepatitis c virus inhibitors” (priority 2003, published 2006)
# Where two headings read alike, the source gives them in different places.
# Tested on: HCV proteins in Rep5.1 cells (replicon cell line)
# Assay: Inhibitory activity of HCV: cell-based ELISA in replicon cell line Rep5.1 (decrease of HCV proteins)
# Set-up: species or system hepatitis C virus
# Conditions: Rep5.1 cells, 72 hours with drug
# Experimental: In order to, screen and evaluate the anti-HCV therapeutic agents in cell level, the following experiments are carried out using a replicon cell line, Rep5.1 [Lohmann, et al., Replication of subgenomic hepatitis C virus RNAs in a hepatoma cell line. Science 285:110-113 (1999)].
# Rep5.1 cells, the replicon cell line, are cultured in DMEM-10 containing 500 μg/ml of G418. The Rep5.1 cells in log phase are suspended by trypsin treatment, and 5000 cells are distributed to each well of a 96-well plate. After 4 hours when the cells are attached to the plate, the serially diluted drug is added to each well. After 48 hours, a part of the treated cells are observed by microscope, and MTT assay is carried out to evaluate the drug toxicity. The cytotoxicity is estimated in percentage based on the control containing no drug. After 72 hours, the remaining cells are fixed by methanol/acetone (50/50, v/v), and the decrease of HCV proteins is measured by using HCV antibody. The extent of decrease is estimated in percentage based on the control containing no drug, and the concentration of drug at which 50% of proteins is decreased is determined to be IC50. The compounds showing activity via this procedure are validated by Western blotting. In order to find out whether the decrease of HCV protein is related to the decrease of replicon RNA, Rep5.1 cell is treated with some selected drugs for 72 hours, RNA is purified, dot blotted, and hybridized with isotope labelled nucleic acid to determine the amounts of actin mRNA and replicon RNA, and finally the amount of RNA is compared.
# Plasma samples from 300 persons positive to the hepatitis C antibody test were screened by antibody diagnosis kit produced by LG life Sciences Ltd. (LG HCD3.0 TMB) to select 40 plasma samples having high titer. Replicon cell line and Huh-7 cell line each were cultured in a 96-well cell culture plate, fixed by methanol/acetone (1:1) mixture, and blocked by 3% skimmed milk. The 40 plasma sanples selected above were 100-fold diluted and aided thereto, and the bound antibodies were probed by anti-Human goat antibody (Sigma) to which Horse Radish Peroxidase is attached. As a result, 12 plasma samples having low specificity to Huh-7 cell line, but high specificity to replicon cell line were obtained. These plasma samples were used in the following cell-based ELISA.
# Rep5.1 cells were cultured in DMEM-10 containing 500 μg/ml of G418. The Rep5.1 cells in log phase were suspended by trypsin treatment, and 5000 cells were distributed to each well of a 96-well pate. After 4 hours for which the cells were attached to the plate, the serially diluted drug was added to each well. After 72 hours, the cells were fixed by methanol/acetone (50/50, v/v), and the decrease of HCV proteins was measured by using HCV antibody obtained as above. The extent of decrease was estimated in percentage based on the control containing no drug, and the concentration of drug at which 50% of proteins was decreased was determined to be IC50.
# [1] = Hepatitis C virus, 72 h, concentration at which 50% of HCV proteins was decreased, Table 2, read-out: IC50
# [2] = Hepatitis C virus, 72 h, decrease of HCV proteins measured by HCV antibody, Table 1, read-out: Level (IC50 values classified)
# [3] = concentration at which 50% of HCV proteins was decreased, Table 2, read-out: IC50
Compound,IC50 [1] [µM],IC50 [2] [µM],IC50 [3] [µM]
"CCc1ccc(CCOC(=O)C2=C(C)NC(=S)NC2CO)o1 (centres unmarked) [65″, 4-hydroxymethyl-6-methyl-2-thioxo-1,2,3,4-tetrahydro-pyrimidine-5-carboxylic acid 2-(5-ethyl-furan-2-yl)-ethyl ester]",1.4,1 to 10,
"CC1=C(C(=O)OCc2ccc(C)c(C)c2)CNC(=S)N1 [Compound 76, 6-methyl-2-thioxo-1,2,3,4-tetrahydro-pyrimidine-5-carboxylic acid 3,4-dimethyl-benzyl ester]",0.6,< 1,
"CC1=C(C(=O)OCCc2ccc(F)cc2Cl)C(CF)NC(=S)N1 (centres unmarked) [86′, 4-fluoromethyl-6-methyl-2-thioxo-1,2,3,4-tetrahydro-pyrimidine-5-carboxylic acid 2-(2-chloro-4-fluoro-phenyl)-ethyl ester]",< 0.4,< 1,
"CC1=C(C(=O)OCc2ccccc2C(F)(F)F)CNC(=S)N1 [Compound 100, 6-methyl-2-thioxo-1,2,3,4-tetrahydro-pyrimidine-5-carboxylic acid 2-trifluoromethyl-benzyl ester]",< 0.4,< 1,
"COC(=O)NCCOC(=O)OCC1NC(=S)NC(C)=C1C(=O)OCCc1cccc(Cl)c1 (centres unmarked) [80″, 4-(2-methoxycarbonylnamino-ethoxycarbonyloxymethyl)-6-methyl-2-thioxo-1,2,3,4-tetrahydro-pyrimidine-5-carboxylic acid 2-(3-chloro-phenyl)-ethyl ester]",,,1.1
"CC1=C(C(=O)OCc2cc3c(C)nn(C)c3s2)CNC(=S)N1 [Compound 223, 6-methyl-2-thioxo-1,2,3,4-tetrahydro-pyrimidine-5-carboxylic acid 1,3-dimethyl-1H-thieno[2,3-c]pyrazol-5-ylmethyl ester]",6,1 to 10,
"COc1ccc(COC(=O)C2=C(C)NC(=S)NC2CF)cc1Cl (centres unmarked) [82′, 4-fluoromethyl-6-methyl-2-thioxo-1,2,3,4-tetrahydro-pyrimidine-5-carboxylic acid 3-chloro-4-methoxy-benzyl ester]",2.5,1 to 10,
"CC1=C(C(=O)SCc2ccccc2)CNC(=S)N1 [Compound 85, 6-methyl-2-thioxo-1,2,3,4-tetrahydro-pyrimidine-5-carbothioic acid S-benzyl ester]",0.1,< 1,
"CCCCCCCCNC(=O)CCCCCOC(=O)C1=C(C)NC(=S)NC1 [19′, 6-methyl-2-thioxo-1,2,3,4-tetrahydro-pyrimidine-5-carboxylic acid 5-octylcarbamoyl-pentyl ester]",> 100,> 20,
"CC1=C(C(=O)OCCc2c(F)cccc2Cl)C(CF)NC(=S)N1 (centres unmarked) [87′, 4-fluoromethyl-6-methyl-2-thioxo-1,2,3,4-tetrahydro-pyrimidine-5-carboxylic acid 2-(2-chloro-6-fluoro-phenyl)-ethyl ester]",< 0.4,< 1,
"CC1=C(C(=O)OCCc2cccc(C(F)(F)F)c2)C(CO)NC(=S)N1 (centres unmarked) [38″, 4-hydroxymethyl-6-methyl-2-thioxo-1,2,3,4-tetrahydro-pyrimidine-5-carboxylic acid 2-(3-trifluoromethyl-phenyl)-ethyl ester]",< 0.4,< 1,
"CC1=C(C(=O)O[C@H](C)c2ccccc2)CNC(=S)N1 [Compound 23, 6-methyl-2-thioxo-1,2,3,4-tetrahydro-pyrimidine-5-carboxylic acid (R)-1-phenyl-ethyl ester]",5.4,1 to 10,
"CC1=C(C(=O)OCc2cc3ccccc3s2)CNC(=S)N1 [Compound 219, 6-methyl-2-thioxo-1,2,3,4-tetrahydro-pyrimidine-5-carboxylic acid benzo[b]thiophen-2-ylmethyl ester]",< 0.4,< 1,
"CC1=C(C(=O)OCCc2ccc(C)cc2)C(CO)NC(=S)N1 (centres unmarked) [63″, 4-hydroxymethyl-6-methyl-2-thioxo-1,2,3,4-tetrahydro-pyrimidine-5-carboxylic acid 2-p-tolyl-ethyl ester]",1.6,1 to 10,
"CC1=C(C(=O)OCC#Cc2cccs2)CNC(=S)N1 [Compound 239, 6-methyl-2-thioxo-1,2,3,4-tetrahydro-pyrimidine-5-carboxylic acid 3-thiophen-2-yl-prop-2-inyl ester]",,,< 0.4
"CC1=C(C(=O)OCCSc2nc3ccccc3o2)C(CF)NC(=S)N1 (centres unmarked) [46′, 4-fluoromethyl-6-methyl-2-thioxo-1,2,3,4-tetrahydro-pyrimidine-5-carboxylic acid 2-(benzoxazol-2-ylsulfanyl)-ethyl ester]",6,1 to 10,
"CC1=C(C(=O)OCC#Cc2ccccc2)C(CF)NC(=S)N1 (centres unmarked) [45′, 4-fluoromethyl-6-methyl-2-thioxo-1,2,3,4-tetrahydro-pyrimidine-5-carboxylic acid 3-phenyl-prop-2-inyl ester]",,,0.8
"CC(C)=CCCC(C)=CCOC(=O)C1=C(C)NC(=S)NC1 [Compound 56, 6-methyl-2-thioxo-1,2,3,4-tetrahydro-pyrimidine-5-carboxylic acid 3,7-dimethyl-octa-2,6-dienyl ester]",< 0.5,< 1,
"CC1=C(C(=O)OCCc2ccc(Cl)s2)C(CO)NC(=S)N1 (centres unmarked) [1″, 4-hydroxymethyl-6-methyl-2-thioxo-1,2,3,4-tetrahydro-pyrimidine-5-carboxylic acid 2-(5-chloro-thiophen-2-yl)-ethyl ester]",1.6,1 to 10,
"CC1=C(C(=O)OCCc2ccccc2[N+](=O)[O-])C(CF)NC(=S)N1 (centres unmarked) [77′, 4-fluoromethyl-6-methyl-2-thioxo-1,2,3,4-tetrahydro-pyrimidine-5-carboxylic acid 2-(2-nitro-phenyl)-ethyl ester]",39,> 20,
"CC1=C(C(=O)OCC2CC=CCC2)CNC(=S)N1 (centres unmarked) [3′, 6-methyl-2-thioxo-1,2,3,4-tetrahydro-pyrimidine-5-carboxylic acid cyclohex-3-enylmethyl ester]",0.7,< 1,
"CC1=C(C(=O)OCCCCSc2nc3ccccc3s2)C(CF)NC(=S)N1 (centres unmarked) [55′, 4-fluoromethyl-6-methyl-2-thioxo-1,2,3,4-tetrahydro-pyrimidine-5-carboxylic acid 4-(benzothiazol-2-ylsulfanyl)-butyl ester]",1.6,1 to 10,
"CC1=C(C(=O)OCc2ccc(OCC(C)C)cc2)CNC(=S)N1 [Compound 72, 6-methyl-2-thioxo-1,2,3,4-tetrahydro-pyrimidine-5-carboxylic acid 4-isobutoxy-benzyl ester]",< 0.5,< 1,
"CCc1ccc(COC(=O)C2=C(C)NC(=S)NC2)s1 [Compound 205, 6-methyl-2-thioxo-1,2,3,4-tetrahydro-pyrimidine-5-carboxylic acid 5-ethyl-thiophen-2-ylmethyl ester]",1.8,1 to 10,
"CCCN(c1ccc(CCOC(=O)C2=C(C)NC(=S)NC2CO)cc1[N+](=O)[O-])C1CC1 (centres unmarked) [95″, 4-Hydroxymethyl-6-methyl-2-thioxo-1,2,3,4-tetrahydro-pyrimidine-5-carboxylic acid 2-[4-(cyclopropyl-propyl-amino)-3-nitro-phenyl]-ethyl ester]",0.6,< 1,
"CC1=C(C(=O)OCCCc2ccsc2)CNC(=S)N1 [Compound 243, 6-methyl-2-thioxo-1,2,3,4-tetrahydro-pyrimidine-5-carboxylic acid 3-thiophen-3-yl-propyl ester]",< 0.4,< 1,
"O=C(OCc1ccccc1)C1=C(C(F)(F)F)NC(=S)NC1 [Compound 146, 2-thioxo-6-trifluoromethyl-1,2,3,4-tetrahydro-pyrimidine-5-carboxylic acid benzyl ester]",> 100,> 20,
"CC1=C(C(=O)OCc2cccc(Oc3ccccc3)c2)C(CO)NC(=S)N1 (centres unmarked) [46″, 4-hydroxymethyl-6-methyl-2-thioxo-1,2,3,4-tetrahydro-pyrimidine-5-carboxylic acid 3-phenoxy-benzyl ester]",< 0.4,< 1,
